Results from the supplement of paper PMC11424490.

Legend:
NCI-H2122 [1] = test: relative IC50 of cell viability (CellTiter-Glo); higher = less potent
How it was run: (§1)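 NCI-H2122 (800 cells/well), SW837 and NCI-H358 (500 cells/well) were seeded in 60 µl in 384-well plates. After 24 h, single compounds were dispensed acoustically in dose series and incubated 72 h (NCI-H2122, NCI-H358) or 144 h (SW837). Viability was read by CellTiter-Glo luminescence (15 min shaking, EnVision reader) and normalised to DMSO controls (percent of control). Relative IC50 (averaged over replicates) and the lower plateau come from a four-parameter nonlinear fit.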

NCI-H358 [2] = test: as above
How it was run: as §1

SW837 [3] = test: as above
How it was run: as §1

NCI-H2122 [4] = test: fitted bottom plateau of viability curve, % of DMSO control; higher = less maximal inhibition; extreme values may be limits of the assay
How it was run: as §1

NCI-H358 [5] = test: as above
How it was run: as §1

SW837 [6] = test: as above
How it was run: as §1

Cc1nc(Nc2n[nH]c3c2CN(C(=O)N[C@H](CN(C)C)c2ccccc2)C3(C)C)c2sccc2n1 (top concentration tested 9999.9 nM)
relative IC50 of cell viability (NCI-H2122 [1]): 0.0119 µM
relative IC50 of cell viability (NCI-H358 [2]): 0.0181 µM
relative IC50 of cell viability (SW837 [3]): 0.907 µM
fitted bottom plateau of viability curve (NCI-H2122 [4]): 11.9%
fitted bottom plateau of viability curve (NCI-H358 [5]): 5.57%
fitted bottom plateau of viability curve (SW837 [6]): 0%

CNS(=O)(=O)Nc1nccc(Cc2c(C)c3ccc(Oc4ncccn4)cc3oc2=O)c1F (top concentration tested 10000 nM)
relative IC50 of cell viability (NCI-H2122 [1]): 0.13 µM
relative IC50 of cell viability (NCI-H358 [2]): 0.513 µM
relative IC50 of cell viability (SW837 [3]): 1.57 µM
fitted bottom plateau of viability curve (NCI-H2122 [4]): 1.94%
fitted bottom plateau of viability curve (NCI-H358 [5]): 2.19%
fitted bottom plateau of viability curve (SW837 [6]): 18.8%

COc1ncc(-c2ccc3nccc(-c4ccnnc4)c3c2)cc1NS(=O)(=O)c1ccc(F)cc1F (top concentration tested 50000 nM)
relative IC50 of cell viability (NCI-H2122 [1]): 0.0436 µM
relative IC50 of cell viability (NCI-H358 [2]): 0.0323 µM
relative IC50 of cell viability (SW837 [3]): 0.677 µM
fitted bottom plateau of viability curve (NCI-H2122 [4]): 2.3%
fitted bottom plateau of viability curve (NCI-H358 [5]): 0.391%
fitted bottom plateau of viability curve (SW837 [6]): 3.09%

C[C@@H]1CN(CC(=O)Nc2ccc3c(c2)Cc2cccc(-c4cc(=O)cc(N5CCOCC5)o4)c2S3)C[C@H](C)O1 (top concentration tested 50000 nM)
relative IC50 of cell viability (NCI-H2122 [1]): 11.8 µM
relative IC50 of cell viability (NCI-H358 [2]): 9.01 µM
relative IC50 of cell viability (SW837 [3]): 39.2 µM
fitted bottom plateau of viability curve (NCI-H2122 [4]): 31%
fitted bottom plateau of viability curve (NCI-H358 [5]): 8.33%
fitted bottom plateau of viability curve (SW837 [6]): 0%

Cc1cc(C)c(CNC(=O)c2cc(-c3ccc(N4CCNCC4)nc3)cc3c2c(C)cn3C2CCCC2)c(=O)[nH]1 (top concentration tested 50000 nM)
relative IC50 of cell viability (NCI-H2122 [1]): 17.4 µM
relative IC50 of cell viability (NCI-H358 [2]): 11.5 µM
relative IC50 of cell viability (SW837 [3]): 10.5 µM
fitted bottom plateau of viability curve (NCI-H2122 [4]): 24.3%
fitted bottom plateau of viability curve (NCI-H358 [5]): 0.467%
fitted bottom plateau of viability curve (SW837 [6]): 0.31%

C=CC(=O)N1CCN(c2nc(=O)n(-c3c(C)ccnc3C(C)C)c3nc(-c4c(O)cccc4F)c(F)cc23)[C@@H](C)C1 [AMG510 / Sotorasib] (top concentration tested 1000 nM)
relative IC50 of cell viability (NCI-H2122 [1]): 0.043 µM
relative IC50 of cell viability (NCI-H358 [2]): 0.0204 µM
relative IC50 of cell viability (SW837 [3]): 0.0577 µM
fitted bottom plateau of viability curve (NCI-H2122 [4]): 12%
fitted bottom plateau of viability curve (NCI-H358 [5]): 2.09%
fitted bottom plateau of viability curve (SW837 [6]): 39.6%

CCN1CCN(Cc2ccc(Nc3ncc(F)c(-c4cc(F)c5nc(C)n(C(C)C)c5c4)n3)nc2)CC1 [Abemaciclib] (top concentration tested 10000 nM)
relative IC50 of cell viability (NCI-H2122 [1]): 0.96 µM
relative IC50 of cell viability (NCI-H358 [2]): 0.297 µM
relative IC50 of cell viability (SW837 [3]): 5.14 µM
fitted bottom plateau of viability curve (NCI-H2122 [4]): 35.8%
fitted bottom plateau of viability curve (NCI-H358 [5]): 0%
fitted bottom plateau of viability curve (SW837 [6]): 0%

CN(C)C/C=C/C(=O)Nc1cc2c(Nc3ccc(F)c(Cl)c3)ncnc2cc1O[C@H]1CCOC1 [Afatinib] (top concentration tested 10000 nM)
relative IC50 of cell viability (NCI-H2122 [1]): 1.22 µM
relative IC50 of cell viability (NCI-H358 [2]): 0.176 µM
relative IC50 of cell viability (SW837 [3]): 5.66 µM
fitted bottom plateau of viability curve (NCI-H2122 [4]): 2.68%
fitted bottom plateau of viability curve (NCI-H358 [5]): 0%
fitted bottom plateau of viability curve (SW837 [6]): 0%

Nc1cc(C(F)(F)F)c(-c2cc(N3CCOCC3)nc(N3CCOCC3)n2)cn1 [BKM120] (top concentration tested 10000 nM)
relative IC50 of cell viability (NCI-H2122 [1]): 0.921 µM
relative IC50 of cell viability (NCI-H358 [2]): 1.31 µM
relative IC50 of cell viability (SW837 [3]): 1.79 µM
fitted bottom plateau of viability curve (NCI-H2122 [4]): 3.49%
fitted bottom plateau of viability curve (NCI-H358 [5]): 7.46%
fitted bottom plateau of viability curve (SW837 [6]): 20.6%

COC(=O)[C@]12CCC(C)(C)C[C@H]1[C@H]1C(=O)C=C3[C@@]4(C)C=C(C#N)C(=O)C(C)(C)[C@@H]4CC[C@@]3(C)[C@]1(C)CC2 [Bardoxolone methyl] (top concentration tested 1000 nM)
relative IC50 of cell viability (NCI-H2122 [1]): 0.319 µM
relative IC50 of cell viability (NCI-H358 [2]): 0.113 µM
relative IC50 of cell viability (SW837 [3]): 0.2 µM
fitted bottom plateau of viability curve (NCI-H2122 [4]): 38.7%
fitted bottom plateau of viability curve (NCI-H358 [5]): 0.645%
fitted bottom plateau of viability curve (SW837 [6]): 0%

O=C(/C=C/c1cccc(S(=O)(=O)Nc2ccccc2)c1)NO [Belinostat] (top concentration tested 10000 nM)
relative IC50 of cell viability (NCI-H2122 [1]): 0.274 µM
relative IC50 of cell viability (NCI-H358 [2]): 0.491 µM
relative IC50 of cell viability (SW837 [3]): 1.05 µM
fitted bottom plateau of viability curve (NCI-H2122 [4]): 1.64%
fitted bottom plateau of viability curve (NCI-H358 [5]): 0.339%
fitted bottom plateau of viability curve (SW837 [6]): 0.0148%

Cc1c(N)nc([C@H](CC(N)=O)NC[C@H](N)C(N)=O)nc1C(=O)N[C@H](C(=O)N[C@H](C)[C@@H](O)[C@H](C)C(=O)N[C@H](C(=O)NCCc1nc(-c2nc(C(=O)NCCC[S+](C)C)cs2)cs1)[C@@H](C)O)[C@@H](OC1OC(CO)C(O)C(O)C1OC1OC(CO)C(O)C(OC(N)=O)C1O)c1cnc[nH]1 (some centres undefined) [Bleomycin] (top concentration tested 10000 nM)
relative IC50 of cell viability (NCI-H2122 [1]): 1.2 µM
relative IC50 of cell viability (NCI-H358 [2]): 1.38 µM
relative IC50 of cell viability (SW837 [3]): 0.438 µM
fitted bottom plateau of viability curve (NCI-H2122 [4]): 45.4%
fitted bottom plateau of viability curve (NCI-H358 [5]): 12.7%
fitted bottom plateau of viability curve (SW837 [6]): 4.05%

CC(C)C[C@H](NC(=O)[C@H](Cc1ccccc1)NC(=O)c1cnccn1)B(O)O [Bortezomib] (top concentration tested 999.9 nM)
relative IC50 of cell viability (NCI-H2122 [1]): 0.0165 µM
relative IC50 of cell viability (NCI-H358 [2]): 0.00981 µM
relative IC50 of cell viability (SW837 [3]): 0.00591 µM
fitted bottom plateau of viability curve (NCI-H2122 [4]): 9.55%
fitted bottom plateau of viability curve (NCI-H358 [5]): 0.755%
fitted bottom plateau of viability curve (SW837 [6]): 0.446%

COc1cc(Nc2c(C#N)cnc3cc(OCCCN4CCN(C)CC4)c(OC)cc23)c(Cl)cc1Cl [Bosutinib] (top concentration tested 10000 nM)
relative IC50 of cell viability (NCI-H2122 [1]): 3.83 µM
relative IC50 of cell viability (NCI-H358 [2]): 1.51 µM
relative IC50 of cell viability (SW837 [3]): 4.35 µM
fitted bottom plateau of viability curve (NCI-H2122 [4]): 23.5%
fitted bottom plateau of viability curve (NCI-H358 [5]): 25.5%
fitted bottom plateau of viability curve (SW837 [6]): 12.1%

Cc1nc(Nc2ncc(C(=O)Nc3c(C)cccc3Cl)s2)cc(N2CCN(CCO)CC2)n1 [Dasatinib] (top concentration tested 10000 nM)
relative IC50 of cell viability (NCI-H358 [2]): 1.36 µM
relative IC50 of cell viability (SW837 [3]): 7.04 µM
fitted bottom plateau of viability curve (NCI-H2122 [4]): 78.1%
fitted bottom plateau of viability curve (NCI-H358 [5]): 0%
fitted bottom plateau of viability curve (SW837 [6]): 0%
